From ChEMBL document CHEMBL2406943, “ABCB1 Structural Models, Molecular Docking, and Synthesis of New Oxadiazolothiazin-3-one Inhibitors” (ACS Med Chem Lett, 2013)

Molecular target: MDR1 (ABCB1, P-glycoprotein) (Homo sapiens, UniProt P08183)
Assay: Inhibition of MDR1 in multidrug resistant human A2780/DX3 cells assessed as accumulation of doxorubicin at 5 times compound concentration that giving 5% antiproliferative activity after 4 hrs by cytofluorimetric assay relative to (Z)-8-(4-chlorophenyl)-5-methyl-8-(pent-2-enyl-oxy)-[1,2,4]oxadiazolo[3,4-c][1,4]thiazin-3(8H)-one
Format: cell-based, A2780 ADR
Conditions: probe doxorubicin

Chain of MDR1 (ABCB1, P-glycoprotein) (P08183 whole entry): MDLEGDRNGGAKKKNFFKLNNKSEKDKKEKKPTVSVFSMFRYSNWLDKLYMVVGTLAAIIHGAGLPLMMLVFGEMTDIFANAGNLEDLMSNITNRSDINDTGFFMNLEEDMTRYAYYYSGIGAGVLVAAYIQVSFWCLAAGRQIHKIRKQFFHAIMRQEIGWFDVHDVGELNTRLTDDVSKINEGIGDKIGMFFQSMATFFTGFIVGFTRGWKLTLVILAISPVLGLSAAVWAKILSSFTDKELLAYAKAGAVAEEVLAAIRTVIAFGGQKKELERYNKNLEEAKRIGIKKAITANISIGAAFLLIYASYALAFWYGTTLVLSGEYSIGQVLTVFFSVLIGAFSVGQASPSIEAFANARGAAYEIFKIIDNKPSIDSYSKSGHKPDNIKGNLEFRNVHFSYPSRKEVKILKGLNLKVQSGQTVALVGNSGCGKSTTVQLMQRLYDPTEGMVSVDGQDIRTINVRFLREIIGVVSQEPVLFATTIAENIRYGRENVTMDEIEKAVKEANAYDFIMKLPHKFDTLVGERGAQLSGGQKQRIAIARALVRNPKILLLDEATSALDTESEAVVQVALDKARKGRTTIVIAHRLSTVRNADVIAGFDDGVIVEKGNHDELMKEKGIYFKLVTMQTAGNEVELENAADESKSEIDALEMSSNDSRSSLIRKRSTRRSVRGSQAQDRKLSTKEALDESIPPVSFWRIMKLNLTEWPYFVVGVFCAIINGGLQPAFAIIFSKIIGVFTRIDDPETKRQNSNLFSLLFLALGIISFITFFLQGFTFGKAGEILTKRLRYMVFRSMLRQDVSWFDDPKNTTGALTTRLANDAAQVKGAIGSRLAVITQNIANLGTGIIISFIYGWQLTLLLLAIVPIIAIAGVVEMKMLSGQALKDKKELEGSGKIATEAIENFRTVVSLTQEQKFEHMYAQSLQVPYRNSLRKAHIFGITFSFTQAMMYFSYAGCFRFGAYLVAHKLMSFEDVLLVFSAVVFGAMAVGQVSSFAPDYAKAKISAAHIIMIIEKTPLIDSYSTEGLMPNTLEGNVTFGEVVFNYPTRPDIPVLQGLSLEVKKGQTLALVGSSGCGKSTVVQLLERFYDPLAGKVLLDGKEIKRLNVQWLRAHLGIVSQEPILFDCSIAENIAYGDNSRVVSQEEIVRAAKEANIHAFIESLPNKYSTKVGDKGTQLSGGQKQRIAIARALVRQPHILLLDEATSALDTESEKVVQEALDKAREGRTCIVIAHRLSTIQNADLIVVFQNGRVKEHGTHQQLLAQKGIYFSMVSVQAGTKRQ

Row | SMILES | inhibition at 4 h [%]
1 | CC/C=C\CO[C@]1(c2ccc(Cl)cc2)SC=C(C)n2c1noc2=O | 48
2 | CC/C=C\CO[C@@]1(c2ccc(Cl)cc2)SC=C(C)n2c1noc2=O | 136
3 | CCCCCCOC1(c2ccc(Br)cc2)SC=C(C)n2c1noc2=O (racemic) | 72
4 | CC/C=C/COC1(c2ccc(Cl)cc2)SC=C(C)n2c1noc2=O (racemic) | 35
5 | CCC/C=C\COC1(c2ccc(Cl)cc2)SC=C(C)n2c1noc2=O (racemic) | 131
6 | CCC/C=C/COC1(c2ccc(Cl)cc2)SC=C(C)n2c1noc2=O (racemic) | 109
7 | CCCCCCOC1(c2ccc(Cl)cc2)SC=C(C)n2c1noc2=O (racemic) | 18
8 | CC/C=C\COC1(c2ccc(Br)cc2)SC=C(C)n2c1noc2=O (racemic) | 139
